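Grown in 96-well plates, cells were treated for 48 hours with each compound at five concentrations. Insufficient inhibition: endpoint recorded as highest concentration tested. Here, GI50 denotes the concentration required for 50% inhibition of growth.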 Active and inactive are the calls of the source. Rule as the data show it: active = GI50 up to about 1.1 µM and inactive = higher.
Legend:
Experiment in all cases: NCI anticancer screen, dose series, 48 h
KM-20L2 = test system: KM-20L2
RXF 393 = test system: RXF 393
SN12C = test system: SN12C
MCF7 = test system: MCF7
U-251 = test system: U-251
HL-60 = test system: HL-60
OVCAR-5 = test system: OVCAR-5
A549 = test system: A549
IGROV-1 = test system: IGROV-1
SF-268 = test system: SF-268
SW-620 = test system: SW-620
HCT-116 = test system: HCT-116
SF-539 = test system: SF-539
HOP-62 = test system: HOP-62
SK-MEL-5 = test system: SK-MEL-5
K562 = test system: K562
HCT-15 = test system: HCT-15
HCC 2998 = test system: HCC 2998
COLO 205 = test system: COLO 205
SK-MEL-28 = test system: SK-MEL-28
SF-295 = test system: SF-295
NCI/ADR-RES = test system: NCI/ADR-RES
DMS-273 = test system: DMS-273
Malme-3M = test system: Malme-3M
A498 = test system: A498
DMS-114 = test system: DMS-114
DLD-1 = test system: DLD-1
KM12 = test system: KM12
SNB-19 = test system: SNB-19
RPMI-8226 = test system: RPMI-8226
NCI-H23 = test system: NCI-H23
MOLT-4 = test system: MOLT-4
M19-MEL = test system: M19-MEL
NCI-H226 = test system: NCI-H226
HT-29 = test system: HT-29
EKVX = test system: EKVX
OVCAR-3 = test system: OVCAR-3
SNB-78 = test system: SNB-78
SK-MEL-2 = test system: SK-MEL-2
UACC-62 = test system: UACC-62
SK-OV-3 = test system: SK-OV-3
HOP-18 = test system: HOP-18
NCI-H460 = test system: NCI-H460
UO-31 = test system: UO-31
LOX IMVI = test system: LOX IMVI
OVCAR-8 = test system: OVCAR-8
XF498 = test system: XF498
CCRF-CEM = test system: CCRF-CEM
HOP-92 = test system: HOP-92
SNB-75 = test system: SNB-75
NCI-H522 = test system: NCI-H522
UACC-257 = test system: UACC-257
OVCAR-4 = test system: OVCAR-4
TK-10 = test system: TK-10
ACHN = test system: ACHN
CAKI-1 = test system: CAKI-1
M14 = test system: M14
LXFL 529 = test system: LXFL 529
SR = test system: SR
786-0 = test system: 786-0

## O=C1OC2CC=CC1C2 (centres undefined)
KM-20L2
  GI50: > 100 µM (inactive)
RXF 393
  GI50: > 100 µM (inactive)
SN12C
  GI50: > 100 µM (inactive)
MCF7
  GI50: > 100 µM (inactive)
U-251
  GI50: > 100 µM (inactive)
HL-60
  GI50: > 100 µM (inactive)
OVCAR-5
  GI50: > 100 µM (inactive)
A549
  GI50: > 100 µM (inactive)
IGROV-1
  GI50: > 100 µM (inactive)
SF-268
  GI50: > 100 µM (inactive)
SW-620
  GI50: > 100 µM (inactive)
HCT-116
  GI50: > 100 µM (inactive)
SF-539
  GI50: > 100 µM (inactive)
HOP-62
  GI50: > 100 µM (inactive)
SK-MEL-5
  GI50: > 100 µM (inactive)
K562
  GI50: > 100 µM (inactive)
HCT-15
  GI50: > 100 µM
HCC 2998
  GI50: > 100 µM (inactive)
COLO 205
  GI50: > 100 µM (inactive)
SK-MEL-28
  GI50: > 100 µM (inactive)
SF-295
  GI50: > 100 µM (inactive)
NCI/ADR-RES
  GI50: > 100 µM (inactive)
DMS-273
  GI50: > 100 µM (inactive)
Malme-3M
  GI50: > 100 µM (inactive)
A498
  GI50: > 100 µM (inactive)
DMS-114
  GI50: > 100 µM (inactive)
DLD-1
  GI50: > 100 µM (inactive)
KM12
  GI50: > 100 µM (inactive)
SNB-19
  GI50: > 100 µM (inactive)
RPMI-8226
  GI50: > 100 µM (inactive)
NCI-H23
  GI50: > 100 µM (inactive)
MOLT-4
  GI50: > 100 µM (inactive)
M19-MEL
  GI50: > 100 µM (inactive)
NCI-H226
  GI50: > 100 µM (inactive)
HT-29
  GI50: > 100 µM (inactive)
EKVX
  GI50: > 100 µM (inactive)
OVCAR-3
  GI50: > 100 µM (inactive)
SNB-78
  GI50: > 100 µM (inactive)
SK-MEL-2
  GI50: > 100 µM (inactive)
UACC-62
  GI50: > 100 µM (inactive)
SK-OV-3
  GI50: > 100 µM (inactive)
HOP-18
  GI50: > 100 µM (inactive)
NCI-H460
  GI50: > 100 µM (inactive)
UO-31
  GI50: > 100 µM (inactive)
LOX IMVI
  GI50: > 100 µM (inactive)
OVCAR-8
  GI50: > 100 µM (inactive)
XF498
  GI50: > 100 µM (inactive)
CCRF-CEM
  GI50: > 100 µM (inactive)
HOP-92
  GI50: > 100 µM (inactive)
SNB-75
  GI50: > 100 µM (inactive)
NCI-H522
  GI50: > 100 µM (inactive)
UACC-257
  GI50: > 100 µM (inactive)
OVCAR-4
  GI50: > 100 µM (inactive)

## CCSCN(C)c1nc(N(C)C)nc(N(C)C)n1
KM-20L2
  GI50: 55 µM (inactive)
RXF 393
  GI50: 14.2 µM (inactive)
SN12C
  GI50: 77.6 µM (inactive)
U-251
  GI50: 54.2 µM (inactive)
HL-60
  GI50: 29.9 µM (inactive)
OVCAR-5
  GI50: > 100 µM (inactive)
A549
  GI50: 55.2 µM (inactive)
IGROV-1
  GI50: 78.7 µM (inactive)
SF-268
  GI50: > 100 µM (inactive)
SW-620
  GI50: 35.9 µM (inactive)
TK-10
  GI50: > 100 µM (inactive)
HCT-116
  GI50: 54.7 µM (inactive)
SF-539
  GI50: 36.1 µM (inactive)
HOP-62
  GI50: 98.2 µM (inactive)
SK-MEL-5
  GI50: 39.9 µM (inactive)
K562
  GI50: 46.8 µM (inactive)
HCT-15
  GI50: 42.5 µM
ACHN
  GI50: > 100 µM (inactive)
HCC 2998
  GI50: > 100 µM (inactive)
COLO 205
  GI50: 75.2 µM (inactive)
SK-MEL-28
  GI50: 56.4 µM (inactive)
SF-295
  GI50: 92.3 µM (inactive)
DMS-273
  GI50: 38.6 µM (inactive)
Malme-3M
  GI50: 34.3 µM (inactive)
A498
  GI50: 47.8 µM (inactive)
DMS-114
  GI50: 25.9 µM (inactive)
DLD-1
  GI50: 83 µM (inactive)
KM12
  GI50: 35.3 µM (inactive)
SNB-19
  GI50: 78 µM (inactive)
RPMI-8226
  GI50: 49.1 µM (inactive)
CAKI-1
  GI50: 68.2 µM (inactive)
NCI-H23
  GI50: 33.6 µM (inactive)
MOLT-4
  GI50: 46.8 µM (inactive)
M19-MEL
  GI50: 64 µM (inactive)
HT-29
  GI50: 36.5 µM (inactive)
EKVX
  GI50: > 100 µM (inactive)
OVCAR-3
  GI50: 38.3 µM (inactive)
SNB-78
  GI50: > 100 µM (inactive)
SK-MEL-2
  GI50: > 100 µM (inactive)
M14
  GI50: 39.8 µM (inactive)
UACC-62
  GI50: 40.4 µM (inactive)
SK-OV-3
  GI50: > 100 µM (inactive)
HOP-18
  GI50: > 100 µM (inactive)
NCI-H460
  GI50: 39.8 µM (inactive)
UO-31
  GI50: 41.7 µM (inactive)
LXFL 529
  GI50: 45.3 µM (inactive)
LOX IMVI
  GI50: 41.3 µM (inactive)
SR
  GI50: 30 µM (inactive)
OVCAR-8
  GI50: 81.5 µM (inactive)
CCRF-CEM
  GI50: 48.1 µM (inactive)
HOP-92
  GI50: 49.2 µM (inactive)
SNB-75
  GI50: 59 µM (inactive)
NCI-H522
  GI50: 35 µM (inactive)
786-0
  GI50: 36.7 µM (inactive)
UACC-257
  GI50: 43 µM (inactive)
OVCAR-4
  GI50: 72.3 µM (inactive)

From ChEMBL document CHEMBL1201862, “PubChem BioAssay data set” (2004)
